Where “and” joins values, the source holds several entries; their conditions need not be identical. Equal values may be shown once. Numbers after ± are expanded uncertainties.
Columns and labels:
[1] = 101 kPa, Liquid; for viscosity: Anton Paar Stabinger viscometer
[2] = xn = mol fraction of the nth substance listed; conditions: 101 kPa, Liquid; for viscosity: Anton Paar Stabinger viscometer

Cc1ccccc1C [1,2-dimethylbenzene]
mass density ([1]; 288.15 K): 883.285 ± 0.41 kg/m3
speed of sound ([1]; 288.15 K): 1390.3 ± 5.6 m/s
viscosity ([1]; 288.15 K): 0.871 ± 0.018 mPa·s
mass density ([1]; 293.15 K): 879.083 ± 0.41 kg/m3
speed of sound ([1]; 293.15 K): 1369.7 ± 5.6 m/s
viscosity ([1]; 293.15 K): 0.81 ± 0.017 mPa·s
mass density ([1]; 298.15 K): 875.532 ± 0.42 kg/m3
speed of sound ([1]; 298.15 K): 1349.4 ± 5.5 m/s
viscosity ([1]; 298.15 K): 0.756 ± 0.016 mPa·s
mass density ([1]; 303.15 K): 870.726 ± 0.42 kg/m3
speed of sound ([1]; 303.15 K): 1328.3 ± 5.4 m/s
viscosity ([1]; 303.15 K): 0.708 ± 0.015 mPa·s

Cc1ccccc1C [1,2-dimethylbenzene] + COc1ccccc1
viscosity ([2]; 288.15 K, x2 = 0): 0.871 ± 0.018 mPa·s
mass density ([2]; 288.15 K, x2 = 0): 883.285 ± 0.41 kg/m3
speed of sound ([2]; 288.15 K, x2 = 0): 1390.3 ± 5.6 m/s
viscosity ([2]; 293.15 K, x2 = 0): 0.81 ± 0.017 mPa·s
mass density ([2]; 293.15 K, x2 = 0): 879.083 ± 0.41 kg/m3
speed of sound ([2]; 293.15 K, x2 = 0): 1369.7 ± 5.6 m/s
viscosity ([2]; 298.15 K, x2 = 0): 0.756 ± 0.016 mPa·s
mass density ([2]; 298.15 K, x2 = 0): 875.532 ± 0.42 kg/m3
speed of sound ([2]; 298.15 K, x2 = 0): 1349.4 ± 5.5 m/s
viscosity ([2]; 303.15 K, x2 = 0): 0.708 ± 0.015 mPa·s
mass density ([2]; 303.15 K, x2 = 0): 870.726 ± 0.42 kg/m3
speed of sound ([2]; 303.15 K, x2 = 0): 1328.3 ± 5.4 m/s

Cc1cc(C)cc(C)c1 [1,3,5-trimethylbenzene]
mass density ([1]; 288.15 K): 869.169 ± 0.42 kg/m3
speed of sound ([1]; 288.15 K): 1377.5 ± 5.6 m/s
viscosity ([1]; 288.15 K): 0.754 ± 0.023 mPa·s
mass density ([1]; 293.15 K): 865.072 ± 0.43 kg/m3
speed of sound ([1]; 293.15 K): 1357 ± 5.5 m/s
viscosity ([1]; 293.15 K): 0.705 ± 0.021 mPa·s
mass density ([1]; 298.15 K): 861.062 ± 0.44 kg/m3
speed of sound ([1]; 298.15 K): 1336.9 ± 5.5 m/s
viscosity ([1]; 298.15 K): 0.661 ± 0.02 mPa·s
mass density ([1]; 303.15 K): 856.95 ± 0.44 kg/m3
speed of sound ([1]; 303.15 K): 1316.8 ± 5.4 m/s
viscosity ([1]; 303.15 K): 0.621 ± 0.019 mPa·s

Cc1cccc(C)c1 [1,3-dimethylbenzene]
mass density ([1]; 288.15 K): 868.317 ± 0.37 kg/m3
speed of sound ([1]; 288.15 K): 1362.6 ± 5.5 m/s
viscosity ([1]; 288.15 K): 0.666 ± 0.014 mPa·s
mass density ([1]; 293.15 K): 864.049 ± 0.38 kg/m3
speed of sound ([1]; 293.15 K): 1357 ± 25 m/s
viscosity ([1]; 293.15 K): 0.619 ± 0.013 mPa·s
mass density ([1]; 298.15 K): 859.767 ± 0.38 kg/m3
speed of sound ([1]; 298.15 K): 1321 ± 5.4 m/s
viscosity ([1]; 298.15 K): 0.581 ± 0.012 mPa·s
mass density ([1]; 303.15 K): 855.469 ± 0.39 kg/m3
speed of sound ([1]; 303.15 K): 1300.3 ± 5.3 m/s
viscosity ([1]; 303.15 K): 0.552 ± 0.011 mPa·s

Cc1cccc(C)c1 [1,3-dimethylbenzene] + COc1ccccc1
viscosity ([2]; 288.15 K, x2 = 0): 0.666 ± 0.014 mPa·s
mass density ([2]; 288.15 K, x2 = 0): 868.317 ± 0.37 kg/m3
speed of sound ([2]; 288.15 K, x2 = 0): 1362.6 ± 5.5 m/s
viscosity ([2]; 293.15 K, x2 = 0): 0.619 ± 0.013 mPa·s
mass density ([2]; 293.15 K, x2 = 0): 864.049 ± 0.38 kg/m3
speed of sound ([2]; 293.15 K, x2 = 0): 1343.4 ± 5.4 m/s
viscosity ([2]; 298.15 K, x2 = 0): 0.581 ± 0.012 mPa·s
mass density ([2]; 298.15 K, x2 = 0): 859.767 ± 0.38 kg/m3
speed of sound ([2]; 298.15 K, x2 = 0): 1321 ± 5.4 m/s
viscosity ([2]; 303.15 K, x2 = 0): 0.552 ± 0.011 mPa·s
mass density ([2]; 303.15 K, x2 = 0): 855.469 ± 0.39 kg/m3
speed of sound ([2]; 303.15 K, x2 = 0): 1300.3 ± 5.3 m/s

Cc1ccc(C)cc1 [1,4-dimethylbenzene]
mass density ([1]; 288.15 K): 865.253 ± 0.37 kg/m3
speed of sound ([1]; 288.15 K): 1352 ± 5.5 m/s
viscosity ([1]; 288.15 K): 0.701 ± 0.021 mPa·s
mass density ([1]; 293.15 K): 860.917 ± 0.38 kg/m3
speed of sound ([1]; 293.15 K): 1331.1 ± 5.4 m/s
viscosity ([1]; 293.15 K): 0.65 ± 0.02 mPa·s
mass density ([1]; 298.15 K): 856.617 ± 0.39 kg/m3
speed of sound ([1]; 298.15 K): 1310 ± 5.3 m/s
viscosity ([1]; 298.15 K): 0.611 ± 0.018 mPa·s
mass density ([1]; 303.15 K): 852.255 ± 0.39 kg/m3
speed of sound ([1]; 303.15 K): 1289.7 ± 5.3 m/s
viscosity ([1]; 303.15 K): 0.576 ± 0.017 mPa·s

Cc1ccc(C)cc1 [1,4-dimethylbenzene] + COc1ccccc1
viscosity ([2]; 288.15 K, x2 = 0): 0.701 ± 0.021 mPa·s
mass density ([2]; 288.15 K, x2 = 0): 865.253 ± 0.37 kg/m3
speed of sound ([2]; 288.15 K, x2 = 0): 1352 ± 5.5 m/s
viscosity ([2]; 293.15 K, x2 = 0): 0.65 ± 0.02 mPa·s
mass density ([2]; 293.15 K, x2 = 0): 860.917 ± 0.38 kg/m3
speed of sound ([2]; 293.15 K, x2 = 0): 1331.1 ± 5.4 m/s
viscosity ([2]; 298.15 K, x2 = 0): 0.611 ± 0.018 mPa·s
mass density ([2]; 298.15 K, x2 = 0): 856.617 ± 0.39 kg/m3
speed of sound ([2]; 298.15 K, x2 = 0): 1310 ± 5.3 m/s
viscosity ([2]; 303.15 K, x2 = 0): 0.576 ± 0.017 mPa·s
mass density ([2]; 303.15 K, x2 = 0): 852.255 ± 0.39 kg/m3
speed of sound ([2]; 303.15 K, x2 = 0): 1289.7 ± 5.3 m/s

COc1ccccc1 [anisole]
mass density ([1]; 288.15 K): 998.441 ± 0.23 kg/m3 and 998.44 ± 0.23 kg/m3
speed of sound ([1]; 288.15 K): 1449.1 ± 5.8 m/s
viscosity ([1]; 288.15 K): 1.188 ± 0.024 mPa·s
mass density ([1]; 293.15 K): 993.649 ± 0.23 kg/m3 and 993.653 ± 0.23 kg/m3 and 993.651 ± 0.23 kg/m3
speed of sound ([1]; 293.15 K): 1428.5 ± 5.7 m/s
viscosity ([1]; 293.15 K): 1.084 ± 0.022 mPa·s
mass density ([1]; 298.15 K): 989.106 ± 0.24 kg/m3 [middle of 4 runs]
speed of sound ([1]; 298.15 K): 1408 ± 5.7 m/s
viscosity ([1]; 298.15 K): 1.017 ± 0.021 mPa·s
mass density ([1]; 303.15 K): 984.372 ± 0.24 kg/m3 and 984.37 ± 0.25 kg/m3 and 984.374 ± 0.24 kg/m3
speed of sound ([1]; 303.15 K): 1387.7 ± 5.6 m/s and 1386.7 ± 5.6 m/s
viscosity ([1]; 303.15 K): 0.931 ± 0.019 mPa·s

COc1ccccc1 [anisole] + Cc1cc(C)cc(C)c1
viscosity ([2]; 288.15 K, x1 = 1): 1.188 ± 0.036 mPa·s
mass density ([2]; 288.15 K, x1 = 1): 998.44 ± 0.23 kg/m3
speed of sound ([2]; 288.15 K, x1 = 1): 1449.1 ± 5.8 m/s
viscosity ([2]; 293.15 K, x1 = 1): 1.084 ± 0.033 mPa·s
mass density ([2]; 293.15 K, x1 = 1): 993.651 ± 0.23 kg/m3
speed of sound ([2]; 293.15 K, x1 = 1): 1428.5 ± 5.7 m/s
viscosity ([2]; 298.15 K, x1 = 1): 1.017 ± 0.031 mPa·s
mass density ([2]; 298.15 K, x1 = 1): 989.106 ± 0.24 kg/m3
speed of sound ([2]; 298.15 K, x1 = 1): 1408 ± 5.7 m/s
viscosity ([2]; 303.15 K, x1 = 1): 0.931 ± 0.028 mPa·s
mass density ([2]; 303.15 K, x1 = 1): 984.37 ± 0.25 kg/m3
speed of sound ([2]; 303.15 K, x1 = 1): 1386.7 ± 5.6 m/s

c1ccccc1 [benzene]
mass density ([1]; 288.15 K): 884.184 ± 0.35 kg/m3
speed of sound ([1]; 288.15 K): 1347.2 ± 5.5 m/s
viscosity ([1]; 288.15 K): 0.709 ± 0.015 mPa·s
mass density ([1]; 293.15 K): 877.43 ± 0.36 kg/m3
speed of sound ([1]; 293.15 K): 1323.3 ± 5.4 m/s
viscosity ([1]; 293.15 K): 0.648 ± 0.013 mPa·s
mass density ([1]; 298.15 K): 873.58 ± 0.36 kg/m3
speed of sound ([1]; 298.15 K): 1299.7 ± 5.3 m/s
viscosity ([1]; 298.15 K): 0.604 ± 0.012 mPa·s
mass density ([1]; 303.15 K): 868.174 ± 0.37 kg/m3
speed of sound ([1]; 303.15 K): 1276.4 ± 5.2 m/s
viscosity ([1]; 303.15 K): 0.571 ± 0.012 mPa·s

c1ccccc1 [benzene] + COc1ccccc1
viscosity ([2]; 288.15 K, x2 = 0): 0.709 ± 0.015 mPa·s
mass density ([2]; 288.15 K, x2 = 0): 884.184 ± 0.35 kg/m3
speed of sound ([2]; 288.15 K, x2 = 0): 1347.2 ± 5.5 m/s
viscosity ([2]; 293.15 K, x2 = 0): 0.648 ± 0.013 mPa·s
mass density ([2]; 293.15 K, x2 = 0): 877.43 ± 0.36 kg/m3
speed of sound ([2]; 293.15 K, x2 = 0): 1323.3 ± 5.4 m/s
viscosity ([2]; 298.15 K, x2 = 0): 0.604 ± 0.012 mPa·s
mass density ([2]; 298.15 K, x2 = 0): 873.58 ± 0.36 kg/m3
speed of sound ([2]; 298.15 K, x2 = 0): 1299.7 ± 5.3 m/s
viscosity ([2]; 303.15 K, x2 = 0): 0.571 ± 0.012 mPa·s
mass density ([2]; 303.15 K, x2 = 0): 868.174 ± 0.37 kg/m3
speed of sound ([2]; 303.15 K, x2 = 0): 1276.4 ± 5.2 m/s

Cc1ccccc1 [toluene]
mass density ([1]; 288.15 K): 871.412 ± 0.33 kg/m3
speed of sound ([1]; 288.15 K): 1350 ± 5.4 m/s
viscosity ([1]; 288.15 K): 0.63 ± 0.013 mPa·s
mass density ([1]; 293.15 K): 866.874 ± 0.34 kg/m3
speed of sound ([1]; 293.15 K): 1327.2 ± 5.4 m/s
viscosity ([1]; 293.15 K): 0.588 ± 0.012 mPa·s
mass density ([1]; 298.15 K): 862.2 ± 0.35 kg/m3
speed of sound ([1]; 298.15 K): 1305.4 ± 5.3 m/s
viscosity ([1]; 298.15 K): 0.556 ± 0.011 mPa·s
mass density ([1]; 303.15 K): 857.464 ± 0.35 kg/m3
speed of sound ([1]; 303.15 K): 1283.8 ± 5.2 m/s
viscosity ([1]; 303.15 K): 0.523 ± 0.011 mPa·s

Cc1ccccc1 [toluene] + COc1ccccc1
viscosity ([2]; 288.15 K, x2 = 0): 0.63 ± 0.013 mPa·s
mass density ([2]; 288.15 K, x2 = 0): 871.412 ± 0.33 kg/m3
speed of sound ([2]; 288.15 K, x2 = 0): 1350 ± 5.4 m/s
viscosity ([2]; 293.15 K, x2 = 0): 0.588 ± 0.012 mPa·s
mass density ([2]; 293.15 K, x2 = 0): 866.874 ± 0.34 kg/m3
speed of sound ([2]; 293.15 K, x2 = 0): 1327.2 ± 5.4 m/s
viscosity ([2]; 298.15 K, x2 = 0): 0.556 ± 0.011 mPa·s
mass density ([2]; 298.15 K, x2 = 0): 862.2 ± 0.35 kg/m3
speed of sound ([2]; 298.15 K, x2 = 0): 1305.4 ± 5.3 m/s
viscosity ([2]; 303.15 K, x2 = 0): 0.523 ± 0.011 mPa·s
mass density ([2]; 303.15 K, x2 = 0): 857.464 ± 0.35 kg/m3
speed of sound ([2]; 303.15 K, x2 = 0): 1283.8 ± 5.2 m/s
